Data reported in publication PMC6383986, “Fragment-Based Covalent Ligand Screening Enables Rapid Discovery of Inhibitors for the RBR E3 Ubiquitin Ligase HOIP” (Journal of the American Chemical Society, 2019).

How the values were obtained:
Assay in all cases: ABPP quantitative MS, MCF7
Type in all cases: cell-based
Settings in all cases: 30 μM (11a) 7 h vs DMSO, then 3 μM (15) 2 h
DHX36 = molecular target: T1, DHX36 (Homo sapiens, UniProt Q9H2U1)
T1 construct: endogenous in cells; host or cells: MCF7
T1 sequence (Q9H2U1 whole entry): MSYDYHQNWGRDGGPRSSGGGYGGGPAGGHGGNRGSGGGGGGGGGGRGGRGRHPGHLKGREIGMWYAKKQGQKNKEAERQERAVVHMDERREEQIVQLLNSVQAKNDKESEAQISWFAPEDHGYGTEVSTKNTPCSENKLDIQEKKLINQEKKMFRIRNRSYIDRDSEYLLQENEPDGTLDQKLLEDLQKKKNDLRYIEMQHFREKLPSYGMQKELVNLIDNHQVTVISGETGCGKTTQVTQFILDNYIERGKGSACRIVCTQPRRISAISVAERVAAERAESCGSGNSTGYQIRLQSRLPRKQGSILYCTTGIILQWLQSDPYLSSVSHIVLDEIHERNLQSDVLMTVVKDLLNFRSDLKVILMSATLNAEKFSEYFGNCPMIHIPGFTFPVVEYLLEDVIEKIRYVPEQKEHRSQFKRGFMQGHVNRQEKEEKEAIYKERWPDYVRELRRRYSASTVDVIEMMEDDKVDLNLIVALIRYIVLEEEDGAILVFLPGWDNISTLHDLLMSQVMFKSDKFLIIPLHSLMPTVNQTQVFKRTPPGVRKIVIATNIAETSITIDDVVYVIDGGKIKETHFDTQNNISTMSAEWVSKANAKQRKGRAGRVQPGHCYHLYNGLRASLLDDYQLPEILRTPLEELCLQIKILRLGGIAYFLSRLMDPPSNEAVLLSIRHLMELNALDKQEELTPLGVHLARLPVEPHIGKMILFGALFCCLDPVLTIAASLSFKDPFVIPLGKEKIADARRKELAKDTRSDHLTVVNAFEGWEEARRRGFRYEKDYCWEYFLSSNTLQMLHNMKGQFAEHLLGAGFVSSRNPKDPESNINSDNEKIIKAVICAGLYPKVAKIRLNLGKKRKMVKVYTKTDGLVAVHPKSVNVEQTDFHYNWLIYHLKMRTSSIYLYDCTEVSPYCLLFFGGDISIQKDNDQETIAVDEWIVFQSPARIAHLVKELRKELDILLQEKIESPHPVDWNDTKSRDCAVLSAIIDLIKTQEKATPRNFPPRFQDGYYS
Description: (§1) control and cells treated with control compounds (11i) and (17) at 30 µM). HOIP RBR wild type […]
(§2) nm, indicating low to no labelling by (11a), and a dominant signal from the 800 channel (green).
(§3) C = HOIP RBR control (0.5 µg).
(§4) 5.2 Activity-based protein profiling – Enrichment and LC-MS
(§5) Cell culture and transfection, compound treatment, ha rvest and lysis
(§6) HEK293T cells were cultured and transfected as describ ed in section 4.8 above. MCF7 cells were seeded in 100 mm Petri dishes at 6 × 10^5 cells/dish and cultured overnight at 37 °C as described in section 4.8 above. Both cell types were treated with inhibitor (11a) (30 µM final concentration) or DMSO as described above, incubating for 7 h at 37 °C, followed by addition of clickable probe (15) (3 µM final concentration) and incubation for an additional 2 h. The cells were then harvested and lysed (50 mM Tris-HCl, pH 7.5, 1.5 mM MgCl2, 150 mM NaCl, 5% glycerol, 0.8% v/v IGEPAL-CA630, 25 mM NaF, 1 mM Na3VO4, complete protease inhibitor), and the protein concentration was determined by the BCA assay as described in section 4.7 above.
(§7) Enrichment of TCO-labelled proteins
(§8) Similar to a previously described protocol,22 tetrazine beads were generated by incubating high capacity neutravidin beads (500 µL; Thermo Scientific) with 0.1 µmol tetrazine-PEG4-biotin (Jena Bioscience) in PBS buffer over night at 4 °C, followed by blocking with 5 µL 100 mM biotin in DMSO for 30 minutes at 4 °C. The beads were washed 3× with buffer (50 mM Tris-HCl pH 7.4, 5% glycerol, 1.5 mM MgCl2, 150 mM NaCl, 1 mM Na3VO3, 5 mM NaF) supplemented with 0.4% IGEPAL CA-630 and adjusted to a 5% v/v slurry.
(§9) Lysate with a protein concentration of approx. 2 mg/mL (500 µL) were added to the TCO beads (35 µL) on a 96-well filter plate (Porvair, Dunn #240002) and incubated at 4°C for 2 h. After incubation, beads were washed using a vacuum manifold with 5 mL wash buffer 1 (WB1) (50 mM […]
(§10) (50 mM HEPES pH 8.5, 2 M urea), and 5 mL WB4 (50 mM HEPES pH 8.5). Proteins were then eluted by on bead digestion: 60 µL elution buffer (50 mM HEPES pH 8.5, 5 mM Tris-(2-carboxyethyl)phosphine, 15 mM chloroacetamide, 0.004 µg LysC/ µL (Wako chemicals), 0.004 µg trypsin/µL (Promega)) were added to the washed beads and incubated over night at room temperature. Eluates were collected by centrifugation, beads incubated with an additional 60 µL WB4, eluted and both eluates were combined and lyophilized. […]
(§11) proportional to the number of ions; this measure is referred to as ion area.24 Spectra matching to peptides were filtered according to the following criteria: mascot ion score >15, signal-to-background of the precursor ion >4, and signal -to-interference >0.5. Fold-changes were corrected for isotope purity and adjusted for interference caused by co-eluting nearly isobaric peaks.25 Protein quantification was derived from individual spectra matching to distinct peptides by using a sum-based bootstrap algorithm; 95% confidence intervals were calculated for all protein fold-changes that were quantified with more than three spectra.23 Relative protein abundance s were generated on the basis of MS1 abundances .26 Briefly, XIC peaks were matched to identified peptides. […] These values were then summed, and the mean was calculated.
(§12) In cases where fewer than 3 sequences were associated, the mean was calculated using XIC intensities from either one or two sequences.
(§13) Proteins were filtered for >1 quantified spectra matches (qusm). Residual binding was calculated […]

GCLC = molecular target: T2, GCLC (Homo sapiens, UniProt P48506)
T2 construct: endogenous in cells; host or cells: MCF7
T2 sequence (P48506 whole entry): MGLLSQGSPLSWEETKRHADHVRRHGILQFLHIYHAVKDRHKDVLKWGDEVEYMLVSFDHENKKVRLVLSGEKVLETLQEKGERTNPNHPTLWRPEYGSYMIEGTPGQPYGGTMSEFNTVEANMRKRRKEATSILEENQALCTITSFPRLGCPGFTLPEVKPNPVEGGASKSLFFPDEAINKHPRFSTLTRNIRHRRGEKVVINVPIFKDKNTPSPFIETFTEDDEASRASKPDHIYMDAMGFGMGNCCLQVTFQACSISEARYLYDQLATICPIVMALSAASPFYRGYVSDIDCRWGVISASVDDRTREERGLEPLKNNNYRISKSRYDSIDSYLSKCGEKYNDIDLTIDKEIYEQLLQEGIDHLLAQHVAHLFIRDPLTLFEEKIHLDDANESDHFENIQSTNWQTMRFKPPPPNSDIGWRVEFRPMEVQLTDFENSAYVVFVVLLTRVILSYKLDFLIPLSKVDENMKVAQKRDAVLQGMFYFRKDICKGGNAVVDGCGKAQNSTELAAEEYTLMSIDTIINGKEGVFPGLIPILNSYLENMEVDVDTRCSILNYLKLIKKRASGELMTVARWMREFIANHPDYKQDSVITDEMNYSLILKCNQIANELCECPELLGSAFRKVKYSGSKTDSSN
Description: as §1, §2, §3, §4, §5, §6, §7, §8, §9, §10, §11, §12, §13

ALDH6A1 = molecular target: T3, ALDH6A1 (Homo sapiens, UniProt Q02252)
T3 construct: endogenous in cells; host or cells: HEK293T (A21); MCF7 (A27)
T3 sequence (Q02252 34-535): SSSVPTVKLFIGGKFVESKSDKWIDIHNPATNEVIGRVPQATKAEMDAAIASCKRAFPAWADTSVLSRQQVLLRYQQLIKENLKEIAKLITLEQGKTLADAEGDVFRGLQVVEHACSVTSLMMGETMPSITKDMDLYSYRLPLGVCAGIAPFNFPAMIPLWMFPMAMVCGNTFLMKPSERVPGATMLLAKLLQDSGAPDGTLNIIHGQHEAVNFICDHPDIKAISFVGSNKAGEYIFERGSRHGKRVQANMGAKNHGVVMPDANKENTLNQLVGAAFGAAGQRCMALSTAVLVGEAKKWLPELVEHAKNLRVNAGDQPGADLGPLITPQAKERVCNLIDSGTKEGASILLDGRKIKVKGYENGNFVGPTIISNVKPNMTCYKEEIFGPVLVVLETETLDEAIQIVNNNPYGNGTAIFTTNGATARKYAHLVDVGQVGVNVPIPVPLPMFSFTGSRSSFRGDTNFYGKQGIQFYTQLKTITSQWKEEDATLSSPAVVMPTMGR
Description: as §1, §2, §3, §4, §5, §6, §7, §8, §9, §10, §11, §12, §13

SRBD1 = molecular target: T4, SRBD1 (Homo sapiens, UniProt Q8N5C6)
T4 construct: endogenous in cells; host or cells: MCF7
T4 sequence (Q8N5C6 whole entry): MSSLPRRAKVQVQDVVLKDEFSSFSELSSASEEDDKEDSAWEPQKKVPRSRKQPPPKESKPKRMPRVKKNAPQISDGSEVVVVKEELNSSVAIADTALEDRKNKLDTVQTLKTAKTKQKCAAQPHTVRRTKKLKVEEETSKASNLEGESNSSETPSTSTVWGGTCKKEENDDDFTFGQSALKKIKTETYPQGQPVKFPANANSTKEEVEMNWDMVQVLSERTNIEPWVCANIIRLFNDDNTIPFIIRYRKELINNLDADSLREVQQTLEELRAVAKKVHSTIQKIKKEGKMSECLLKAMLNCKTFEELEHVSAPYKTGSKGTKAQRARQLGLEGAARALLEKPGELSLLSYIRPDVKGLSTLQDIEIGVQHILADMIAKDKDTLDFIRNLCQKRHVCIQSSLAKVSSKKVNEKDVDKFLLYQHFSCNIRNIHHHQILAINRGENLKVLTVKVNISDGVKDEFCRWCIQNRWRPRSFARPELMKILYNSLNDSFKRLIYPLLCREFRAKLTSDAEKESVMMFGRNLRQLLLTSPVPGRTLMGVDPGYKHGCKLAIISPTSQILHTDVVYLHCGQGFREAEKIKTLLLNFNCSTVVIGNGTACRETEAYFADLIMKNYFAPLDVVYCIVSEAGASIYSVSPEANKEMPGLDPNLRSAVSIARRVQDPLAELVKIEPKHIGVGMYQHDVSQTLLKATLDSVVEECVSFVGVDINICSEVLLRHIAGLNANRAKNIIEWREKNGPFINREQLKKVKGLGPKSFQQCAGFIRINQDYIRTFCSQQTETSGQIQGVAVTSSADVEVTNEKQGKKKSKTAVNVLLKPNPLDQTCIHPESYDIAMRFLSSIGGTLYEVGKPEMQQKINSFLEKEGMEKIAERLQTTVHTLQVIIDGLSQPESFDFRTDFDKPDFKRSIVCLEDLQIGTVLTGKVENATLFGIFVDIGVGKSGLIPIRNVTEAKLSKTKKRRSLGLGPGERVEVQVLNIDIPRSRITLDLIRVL
Description: as §1, §2, §3, §4, §5, §6, §7, §8, §9, §10, §11, §12, §13

SMG9 = molecular target: T5, SMG9 (Homo sapiens, UniProt Q9H0W8)
T5 construct: endogenous in cells; host or cells: MCF7
T5 sequence (Q9H0W8 whole entry): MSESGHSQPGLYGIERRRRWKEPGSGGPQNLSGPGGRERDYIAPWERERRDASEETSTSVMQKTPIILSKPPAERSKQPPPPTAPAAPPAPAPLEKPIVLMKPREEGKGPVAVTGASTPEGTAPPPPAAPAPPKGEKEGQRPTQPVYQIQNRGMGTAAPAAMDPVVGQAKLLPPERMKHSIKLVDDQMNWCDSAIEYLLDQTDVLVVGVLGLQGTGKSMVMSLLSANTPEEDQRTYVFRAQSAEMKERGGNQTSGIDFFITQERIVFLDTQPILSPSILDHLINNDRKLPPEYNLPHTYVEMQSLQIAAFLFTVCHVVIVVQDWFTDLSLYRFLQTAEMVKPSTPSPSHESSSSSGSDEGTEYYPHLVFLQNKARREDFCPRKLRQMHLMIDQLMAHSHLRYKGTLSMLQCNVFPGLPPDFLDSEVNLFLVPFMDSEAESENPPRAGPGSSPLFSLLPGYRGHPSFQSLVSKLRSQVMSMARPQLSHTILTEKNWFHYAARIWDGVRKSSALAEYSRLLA
Description: as §1, §2, §3, §4, §5, §6, §7, §8, §9, §10, §11, §12, §13

COC(=O)/C=C/CNC(=O)c1cc2c([nH]c1=O)CCCC2 [Compound 11a]
ratio: mean ratio between control and competition samples, DHX36 (DHX36): -0.8884 log2 | ratio: mean ratio between control and competition samples, GCLC (GCLC): -0.8853 log2 | ratio: mean ratio between control and competition samples, ALDH6A1 (ALDH6A1): -0.9838 log2 | ratio: mean ratio between control and competition samples, SRBD1 (SRBD1): -0.7897 log2 | ratio: mean ratio between control and competition samples, SMG9 (SMG9): -0.8383 log2
